According to patent publication EP1529535A1, “Isolation of a circulating human lipolytic peptide” (IPF PharmaCeuticals GmbH, priority 2003, dated 2005):

Test system: 3T3L1-derived differentiated mouse adipocytes
Assay type: cell-based
Experimental: According to the invention 3T3L1-derived differentiated mouse adipocytes can be used as appropriate cell-system. These cells are treated with fractions of human hemofiltrate and identified using a glycerol-estimation method (GPO-Trinder reagent, Sigma, Deisenhofen, Germany) lipolytic activity. […] It was subsequently isolated in several chromatographic steps using reverse-phase and cation-exchange chromatographic material. 3T3L1 cells were obtained from ATCC. They were grown in DMEM with 10% FCS, penicillin, streptomycin, and L-glutamine for proliferation. For differentiation into the mature adipocyte phenotype, the cells were plated onto 96 well plates (Costar) and treated for three days with differentiation medium (DMEM with 10% FCS, dexamethasone, insulin, L-glutamine and 8-Br-cAMP) and subsequently for three to six days with sustainment medium (DMEM with 10% FCS and L-glutamine). Cells differentiated as described above were then treated for five hours with the hemofiltrate fractions diluted in serum-free medium. An aliquot of the cell supernatant was mixed with the glycerol-estimation-solution (GPO-Trinder Reagent, Sigma, Garching, Germany) and incubated for 15 minutes. Then the absorbance was measured at 540 nm in a 96 well plate ELISA reader (Dynex). […] The colored product is measured at 540 nm in a spectrophotometer. […]

CSCC[C@H](NC(=O)[C@H](CCCNC(=N)N)NC(=O)[C@H](Cc1ccc(O)cc1)NC(=O)[C@@H]1CCCN1C(=O)CNC(=O)[C@H](CCC(=O)O)NC(=O)[C@H](CC(=O)O)NC(=O)[C@H](CCCCN)NC(=O)[C@H](CCCCN)NC(=O)[C@H](CCC(=O)O)NC(=O)[C@H](C)NC(=O)[C@H](C)NC(=O)[C@@H](N)C(C)C)C(=O)N[C@@H](CCC(=O)O)C(=O)N[C@@H](Cc1c[nH]cn1)C(=O)N[C@@H](Cc1ccccc1)C(=O)N[C@@H](CCCNC(=N)N)C(=O)N[C@@H](Cc1c[nH]c2ccccc12)C(=O)NCC(=O)N[C@@H](CO)C(=O)N1CCC[C@H]1C(=O)N1CCC[C@H]1C(=O)N[C@@H](CCCCN)C(=O)N[C@@H](CC(=O)O)C(=O)O [vaaekkdegp yrmehfrwgs ppkd] was tested, and the EC50 was ~20 nM.
Compound CSCC[C@H](NC(=O)[C@H](CCCNC(=N)N)NC(=O)[C@H](Cc1ccc(O)cc1)NC(=O)[C@@H]1CCCN1C(=O)CNC(=O)[C@H](CCC(=O)O)NC(=O)[C@H](CC(=O)O)NC(=O)[C@H](CCCCN)NC(=O)[C@H](CCCCN)NC(=O)[C@H](CCC(=O)O)NC(=O)[C@H](C)N)C(=O)N[C@@H](CCC(=O)O)C(=O)N[C@@H](Cc1c[nH]cn1)C(=O)N[C@@H](Cc1ccccc1)C(=O)N[C@@H](CCCNC(=N)N)C(=O)N[C@@H](Cc1c[nH]c2ccccc12)C(=O)NCC(=O)N[C@@H](CO)C(=O)N1CCC[C@H]1C(=O)N1CCC[C@H]1C(=O)N[C@@H](CCCCN)C(=O)N[C@@H](CC(=O)O)C(=O)O [β-MSH, aekkdegp yrmehfrwgs ppkd] has an EC50 of ~20 nM.
